Source: patent publication US20240376163A1, “PEPTIDE FOR INHIBITING CALCINEURIN AND USE THEREOF” (Seoul National University R&DB Foundation, priority 2023, published 2024)

Tested on: Jurkat T cells
Assay: mRNA sequencing of activated Jurkat T cells
Assay type: cell-based, human
Conditions: P+I

## C=CC[C@@H]1/C=C(\C)C[C@H](C)C[C@H](OC)[C@H]2O[C@@](O)(C(=O)C(=O)N3CCCC[C@H]3C(=O)O[C@H](/C(C)=C/[C@@H]3CC[C@@H](O)[C@H](OC)C3)[C@H](C)[C@@H](O)CC1=O)[C@H](C)C[C@@H]2OC [FK506, Tacrolimus, reference compound]
  ARHGEF6 FPKM: 35.366 FPKM
  ASAP1 FPKM: 7.765 FPKM
  ATG14 FPKM: 7.863 FPKM
  ATP2B4 FPKM: 16.449 FPKM
  ATXN1 FPKM: 1.798 FPKM
  BACH2 FPKM: 29.7 FPKM
  BAI2 FPKM: 1.395 FPKM
  BAIAP2-AS1 FPKM: 2.72 FPKM
  BATF3 FPKM: 36.514 FPKM
  BHLHE40 FPKM: 6.563 FPKM
  BTG1 FPKM: 22.099 FPKM
  C1QL1 FPKM: 1.444 FPKM
  C1orf233 FPKM: 0.79 FPKM
  C3 FPKM: 0.489 FPKM
  C9orf9 FPKM: 7.304 FPKM
  C10orf54 FPKM: 0.382 FPKM
  C16orf46 FPKM: 2.655 FPKM
  CASC15 FPKM: 4.027 FPKM
  CBX4 FPKM: 12.478 FPKM
  CBX6 FPKM: 42.006 FPKM
  CCDC64 FPKM: 10.044 FPKM
  CCDC71L FPKM: 13.763 FPKM
  CCL1 FPKM: 0 FPKM
  CCL3L1 FPKM: 0 FPKM
  CCL4 FPKM: 0 FPKM
  CCL4L1 FPKM: 0.087 FPKM
  CCL4L2 FPKM: 0.087 FPKM
  CCND2 FPKM: 0.558 FPKM
  CD1A FPKM: 4.589 FPKM
  CD1C FPKM: 3.288 FPKM
  CD1D FPKM: 2.553 FPKM
  CD27-AS1 FPKM: 5.11 FPKM
  CD27 FPKM: 3.098 FPKM
  CD55 FPKM: 6.015 FPKM
  CD69 FPKM: 125.597 FPKM
  CD83 FPKM: 35.907 FPKM
  CDCA7 FPKM: 26.911 FPKM
  CDT1 FPKM: 11.013 FPKM
  CFD FPKM: 0.937 FPKM
  CHI3L2 FPKM: 58.214 FPKM
  CHRNA9 FPKM: 4.046 FPKM
  CLEC2B FPKM: 60.911 FPKM
  CNR2 FPKM: 0.674 FPKM
  CORO2A FPKM: 1.862 FPKM
  CRIM1 FPKM: 0.305 FPKM
  CRTAM FPKM: 3.325 FPKM
  CSRNP1 FPKM: 26.052 FPKM
  CST7 FPKM: 2.338 FPKM
  CTDSPL FPKM: 1.758 FPKM
  CTTN FPKM: 11.037 FPKM
  CXCL3 FPKM: 3.147 FPKM
  CXCL9 FPKM: 0.839 FPKM
  CXCL10 FPKM: 0.352 FPKM
  CXCR3 FPKM: 0.503 FPKM
  CYB5RL FPKM: 1.807 FPKM
  DFNA5 FPKM: 12.016 FPKM
  DHFR FPKM: 7.656 FPKM
  DNAJB11 FPKM: 107.644 FPKM
  DNAJC1 FPKM: 13.765 FPKM
  DNPEP FPKM: 31.154 FPKM
  DOK2 FPKM: 27.372 FPKM
  DPY19L2P2 FPKM: 2.937 FPKM
  DPYSL2 FPKM: 11 FPKM
  DTX3L FPKM: 48.022 FPKM
  DUSP2 FPKM: 123.613 FPKM
  DUSP5 FPKM: 116.404 FPKM
  E2F1 FPKM: 7.783 FPKM
  E2F2 FPKM: 3.317 FPKM
  EIF2AK3 FPKM: 9.332 FPKM
  ENC1 FPKM: 9.299 FPKM
  ENHO FPKM: 1.746 FPKM
  ENPP1 FPKM: 124.248 FPKM
  EPAS1 FPKM: 5.846 FPKM
  EPHA3 FPKM: 2.019 FPKM
  ERO1LB FPKM: 5.101 FPKM
  ETV5 FPKM: 15.576 FPKM
  EVI2A FPKM: 15.078 FPKM
  FAM46C FPKM: 5.191 FPKM
  FAM111B FPKM: 5.291 FPKM
  FASLG FPKM: 1.518 FPKM
  FBXO34 FPKM: 14.612 FPKM
  FMNL2 FPKM: 2.726 FPKM
  FOS FPKM: 7.329 FPKM
  FOXO1 FPKM: 1.77 FPKM
  FST FPKM: 2.244 FPKM
  FURIN FPKM: 23.264 FPKM
  FYB FPKM: 11.107 FPKM
  GAMT FPKM: 10.915 FPKM
  GBP1 FPKM: 70.024 FPKM
  GBP2 FPKM: 27.591 FPKM
  GBP3 FPKM: 69.945 FPKM
  GBP4 FPKM: 4.384 FPKM
  GBP5 FPKM: 197.514 FPKM
  GDPD5 FPKM: 29.626 FPKM
  GEM FPKM: 2.495 FPKM
  GINS2 FPKM: 16.935 FPKM
  GLIPR2 FPKM: 15.84 FPKM
  GNAQ FPKM: 21.057 FPKM
  GNG2 FPKM: 25.67 FPKM
  GPR3 FPKM: 7.96 FPKM
